Source: ChEMBL document CHEMBL1201862, “PubChem BioAssay data set” (2004)
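Method: 48-hour compound exposure of cells in 96-well plates, five concentrations, linear interpolation of endpoints. At the GI50, growth is halved.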 Activity calls are given as the source filed them. Rule as the data show it: active = GI50 up to about 1.1 µM and inactive = higher.

Columns and labels:
Test in all cases: NCI tumour cell line growth inhibition, 48 h
HOP-62 = system: HOP-62
SNB-19 = system: SNB-19
SK-OV-3 = system: SK-OV-3
OVCAR-3 = system: OVCAR-3
HL-60 = system: HL-60
SW-620 = system: SW-620
A549 = system: A549
OVCAR-4 = system: OVCAR-4
NCI-H23 = system: NCI-H23
MOLT-4 = system: MOLT-4
HCT-116 = system: HCT-116
SN12C = system: SN12C
NCI-H522 = system: NCI-H522
UACC-257 = system: UACC-257
HT-29 = system: HT-29
KM12 = system: KM12
COLO 205 = system: COLO 205
SK-MEL-28 = system: SK-MEL-28
UACC-62 = system: UACC-62
ACHN = system: ACHN

Measured: GI50

NCCN/C(=N\c1ccccc1)Nc1ccccc1
inactive: HOP-62 > 100 µM | SNB-19 > 100 µM | SK-OV-3 > 100 µM | OVCAR-3 > 100 µM | HL-60 > 100 µM | SW-620 > 100 µM | A549 > 100 µM | OVCAR-4 > 100 µM | NCI-H23 > 100 µM | MOLT-4 > 100 µM | HCT-116 94.2 µM | SN12C > 100 µM | NCI-H522 68.4 µM | UACC-257 > 100 µM | HT-29 > 100 µM | KM12 > 100 µM | COLO 205 > 100 µM | SK-MEL-28 > 100 µM | UACC-62 > 100 µM

CC(=O)NNc1nc(C)c(C(=O)/C=C/c2cccc([N+](=O)[O-])c2)s1
inactive: HOP-62 > 100 µM | SNB-19 > 100 µM | SK-OV-3 > 100 µM | OVCAR-3 > 100 µM | HL-60 > 100 µM | SW-620 > 100 µM | A549 > 100 µM | NCI-H23 > 100 µM | MOLT-4 > 100 µM | HCT-116 > 100 µM | SN12C > 100 µM | NCI-H522 > 100 µM | UACC-257 > 100 µM | HT-29 > 100 µM | KM12 > 100 µM | COLO 205 > 100 µM | SK-MEL-28 > 100 µM | UACC-62 > 100 µM

O=NN1C(c2ccccc2)C2CCCC(C2=O)C1c1ccccc1 (stereo not drawn)
inactive: HOP-62 27 µM | SNB-19 42.6 µM | SK-OV-3 24.5 µM | OVCAR-3 4.82 µM | HL-60 19.3 µM | SW-620 43.9 µM | A549 34 µM | OVCAR-4 23.9 µM | NCI-H23 19.7 µM | MOLT-4 27.1 µM | HCT-116 25.5 µM | SN12C 26.2 µM | NCI-H522 19.1 µM | UACC-257 24 µM | HT-29 18.1 µM | KM12 32.5 µM | COLO 205 17.5 µM | SK-MEL-28 21.7 µM | UACC-62 20.4 µM

CC1CCC2(CC1)NN=c1s/c(=C\c3ccc(O)cc3)c(=O)n1N2 (stereo not drawn)
inactive: HOP-62 > 100 µM | SNB-19 > 100 µM | SK-OV-3 > 100 µM | OVCAR-3 > 100 µM | HL-60 > 100 µM | SW-620 > 100 µM | A549 > 100 µM | OVCAR-4 > 100 µM | NCI-H23 > 100 µM | MOLT-4 > 100 µM | HCT-116 > 100 µM | SN12C > 100 µM | NCI-H522 > 100 µM | HT-29 > 100 µM | KM12 > 100 µM | COLO 205 > 100 µM | SK-MEL-28 > 100 µM | UACC-62 > 100 µM

C/C(CC(=O)Nc1cc(Cl)c(Cl)cc1Cl)=N\NC(N)=O
inactive: HOP-62 > 100 µM | SK-OV-3 > 100 µM | OVCAR-3 > 100 µM | HL-60 > 100 µM | SW-620 > 100 µM | A549 > 100 µM | NCI-H23 > 100 µM | MOLT-4 > 100 µM | HCT-116 > 100 µM | NCI-H522 28.1 µM | UACC-257 > 100 µM | HT-29 > 100 µM | KM12 > 100 µM | COLO 205 > 100 µM | SK-MEL-28 > 100 µM | UACC-62 > 100 µM

COc1ccccc1CNCc1nc2ccccc2[nH]1
inactive: HOP-62 > 100 µM | SNB-19 > 100 µM | OVCAR-3 > 100 µM | HL-60 80.5 µM | SW-620 > 100 µM | A549 > 100 µM | OVCAR-4 > 100 µM | NCI-H23 > 100 µM | MOLT-4 > 100 µM | HCT-116 > 100 µM | SN12C > 100 µM | NCI-H522 > 100 µM | UACC-257 > 100 µM | HT-29 78.7 µM | ACHN > 100 µM | KM12 > 100 µM | COLO 205 > 100 µM | SK-MEL-28 > 100 µM | UACC-62 > 100 µM

Cc1ccc(NC(=O)SCCC(=O)O)cc1
inactive: HOP-62 > 100 µM | SNB-19 > 100 µM | OVCAR-3 > 100 µM | HL-60 > 100 µM | SW-620 > 100 µM | A549 > 100 µM | OVCAR-4 > 100 µM | NCI-H23 > 100 µM | MOLT-4 > 100 µM | HCT-116 > 100 µM | SN12C > 100 µM | NCI-H522 > 100 µM | UACC-257 > 100 µM | HT-29 > 100 µM | ACHN > 100 µM | KM12 > 100 µM | COLO 205 > 100 µM | SK-MEL-28 > 100 µM | UACC-62 45.7 µM
